# Values of other authors, collected in patent US8309061B2, “Formulations and methods for treating rhinosinusitis” (Dey Pharma, L.P., priority 2003, dated 2012).
smiles,measurement,setting,value
"CCC(=O)O[C@]1(C(=O)SCF)[C@H](C)C[C@H]2[C@@H]3C[C@H](F)C4=CC(=O)C=C[C@]4(C)[C@@]3(F)[C@@H](O)C[C@@]21C [Fluticasone propionate, S-(fluromethyl)6α,9-difluoro-11β-17-dihydroxy-16α-methyl-3-oxoandrosta-1,4-diene-17β-carbothioate, 17-propionate]",solubility in dimethyl sulfoxide and dimethylformamide,dimethyl sulfoxide and dimethylformamide,freely soluble
same,solubility in methanol and 95% ethanol,methanol and 95% ethanol,slightly soluble
same,solubility in water,water,practically insoluble
